38 compounds from patent publication US20050075375A1 (priority 2003, published 2005) can be followed below.

Structures are written as SMILES.

In the experiment the test system is monocistronic NK5.1 HCV replicon in Huh7 cells. The experiment is described as follows: HCV replicon assay, monocistronic replicon cell line. It is filed as cell-based, hepatitis C virus. The note with it: Hepatitis C virus, Huh-7; monocistronic NK5.1 HCV replicon in Huh7 cells; median value; read-out: Mono EC50 Median. In outline:
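EC50 derives from the HCV RNA/GAPDH RNA ratio by one-step TaqMan RT-PCR, relative to DMSO-only wells. Compounds (six half-log concentrations, 0.6% DMSO) were incubated 3 days at 37 °C with NK5.1 monocistronic replicon Huh7 cells plated a day earlier.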
On the technique in general: A replicon is a self-replicating genome or part of one, used to study replication in cells.

By EC50 is commonly meant the concentration giving half of the maximal effect.

Turning to `COc1ccc(O)c(-c2noc(-c3ccco3)n2)c1` [Compound 302, 2-(5-Furan-2-yl-[1,2,4]oxadiazol-3-yl)-4-methoxy-phenol], the half-maximal effective concentration (EC50) was found to be 16 µM.

Consider `Cc1ccccc1-c1nnc(-c2ccco2)o1` [Compound 303, 2-Furan-2-yl-5-o-tolyl-[1,3,4]oxadiazole], for which the EC50 is more than 32 µM.

`Oc1ccc2ccccc2c1-c1nnc(-c2ccccc2)o1` [Compound 304, 1-(5-Phenyl-[1,3,4]oxadiazol-2-yl)-naphthalen-2-ol]: the EC50 is more than 32 µM.

`Oc1ccc2ccccc2c1-c1nnc(-c2ccccc2F)o1` [Compound 305, 1-[5-(2-Fluoro-phenyl)-[1,3,4]oxadiazol-2-yl]-naphthalen-2-ol]: the concentration giving a half-maximal response (EC50) was more than 32 µM.

`Oc1ccc2ccccc2c1-c1nnc(-c2ccccc2C(F)(F)F)o1` [Compound 306, 1-[5-(2-Trifluoromethyl-phenyl)-[1,3,4]oxadiazol-2-yl]-naphthalen-2-ol]: the concentration giving a half-maximal response (EC50) stood at 26 µM.

Regarding `Oc1ccc2ccccc2c1-c1nnc(-c2ccco2)o1` [Compound 307, 1-(5-Furan-2-yl-[1,3,4]oxadiazol-2-yl)-naphthalen-2-ol], the EC50 is more than 32 µM.

As to `Oc1ccc2ccccc2c1-c1nnc(-c2cccs2)o1` [Compound 308, 1-(5-Thiophen-2-yl-[1,3,4]oxadiazol-2-yl)-naphthalen-2-ol], the EC50 was determined as 26 µM.

With `Oc1ccc2ccccc2c1-c1nnc(-c2ncc(C(F)(F)F)cc2Cl)o1` [Compound 309, 1-[5-(3-Chloro-5-trifluoromethyl-pyridin-2-yl)-[1,3,4]oxadiazol-2-yl]-naphthalen-2-ol], the 50% effective concentration (EC50) was 16 µM.

For the compound `Oc1ccc2ccccc2c1-c1nnc(-c2c(Cl)cccc2Cl)o1` [Compound 310, 1-[5-(2,6-Dichloro-phenyl)-[1,3,4]oxadiazol-2-yl]-naphthalen-2-ol], the 50% effective concentration (EC50) is 4.4 µM.

Turning to `O=[N+]([O-])c1ccccc1-c1nnc(-c2c(O)ccc3ccccc23)o1` [Compound 311, 1-[5-(2-Nitro-phenyl)-[1,3,4]oxadiazol-2-yl]-naphthalen-2-ol], the concentration giving a half-maximal response (EC50) was determined as 4 µM.

Regarding `Cc1ccccc1-c1nnc(-c2ccccc2)o1` [Compound 312, 2-Phenyl-5-o-tolyl-[1,3,4]oxadiazole], the half-maximal effective concentration (EC50) is more than 32 µM.

Consider `Cc1ccccc1-c1nnc(-c2ccccc2F)o1` [Compound 313, 2-(2-Fluoro-phenyl)-5-o-tolyl-[1,3,4]oxadiazole], for which the 50% effective concentration (EC50) is more than 32 µM.

Consider `Cc1ccccc1-c1nnc(-c2ccccc2C(F)(F)F)o1` [Compound 314, 2-o-Tolyl-5-(2-trifluoromethyl-phenyl)-[1,3,4]oxadiazole], for which the 50% effective concentration (EC50) was 20 µM.

Consider `Cc1ccccc1-c1nnc(-c2ccccc2[N+](=O)[O-])o1` [Compound 315, 2-(2-Nitro-phenyl)-5-o-tolyl-[1,3,4]oxadiazole], for which the concentration for a half-maximal effect (EC50) was more than 32 µM.

For the compound `Cc1ccccc1-c1nnc(-c2c(Cl)cccc2Cl)o1` [Compound 316, 2-(2,6-Dichloro-phenyl)-5-o-tolyl-[1,3,4]oxadiazole], the concentration giving a half-maximal response (EC50) was more than 32 µM.

`Cc1ccccc1-c1nnc(-c2cccs2)o1` [Compound 317, 2-Thiophen-2-yl-5-o-tolyl-[1,3,4]oxadiazole]: the EC50 is more than 32 µM.

As to `Oc1ccccc1-c1nnc(-c2ccccc2)o1` [Compound 318, 2-(5-Phenyl-[1,3,4]oxadiazol-2-yl)-phenol], the concentration for a half-maximal effect (EC50) is 14 µM.

With `Oc1ccccc1-c1nnc(-c2ccccc2F)o1` [Compound 319, 2-[5-(2-Fluoro-phenyl)-[1,3,4]oxadiazol-2-yl]-phenol], the EC50 turned out to be 18 µM.

`Oc1ccccc1-c1nnc(-c2ccccc2C(F)(F)F)o1` [Compound 320, 2-[5-(2-Trifluoromethyl-phenyl)-[1,3,4]oxadiazol-2-yl]-phenol]: the EC50 was more than 32 µM.

For the compound `O=[N+]([O-])c1ccccc1-c1nnc(-c2ccccc2O)o1` [Compound 321, 2-[5-(2-Nitro-phenyl)-[1,3,4]oxadiazol-2-yl]-phenol], the concentration giving a half-maximal response (EC50) is more than 32 µM.

`Oc1ccccc1-c1nnc(-c2c(Cl)cccc2Cl)o1` [Compound 322, 2-[5-(2,6-Dichloro-phenyl)-[1,3,4]oxadiazol-2-yl]-phenol]: the half-maximal effective concentration (EC50) came to 12 µM.

With `Oc1ccccc1-c1nnc(-c2ccco2)o1` [Compound 323, 2-(5-Furan-2-yl-[1,3,4]oxadiazol-2-yl)-phenol], the half-maximal effective concentration (EC50) is more than 32 µM.

Regarding `Oc1ccccc1-c1nnc(-c2cccs2)o1` [Compound 324, 2-(5-Thiophen-2-yl-[1,3,4]oxadiazol-2-yl)-phenol], the concentration for a half-maximal effect (EC50) was more than 32 µM.

`COc1ccccc1-c1nnc(-c2ccccc2)o1` [Compound 325, 2-(2-Methoxy-phenyl)-5-phenyl-[1,3,4]oxadiazole]: the EC50 is more than 32 µM.

For the compound `COc1ccccc1-c1nnc(-c2ccccc2F)o1` [Compound 326, 2-(2-Fluoro-phenyl)-5-(2-methoxy-phenyl)-[1,3,4]oxadiazole], the EC50 is more than 32 µM.

`COc1ccccc1-c1nnc(-c2ccccc2C(F)(F)F)o1` [Compound 327, 2-(2-Methoxy-phenyl)-5-(2-trifluoromethyl-phenyl)-[1,3,4]oxadiazole]: the EC50 stood at 25 µM.

Regarding `COc1ccccc1-c1nnc(-c2ccccc2[N+](=O)[O-])o1` [Compound 328, 2-(2-Methoxy-phenyl)-5-(2-nitro-phenyl)-[1,3,4]oxadiazole], the EC50 is more than 32 µM.

In the case of `COc1ccccc1-c1nnc(-c2c(Cl)cccc2Cl)o1` [Compound 329, 2-(2,6-Dichloro-phenyl)-5-(2-methoxy-phenyl)-[1,3,4]oxadiazole], the EC50 was more than 32 µM.

Take `COc1ccccc1-c1nnc(-c2ccco2)o1` [Compound 330, 2-Furan-2-yl-5-(2-methoxy-phenyl)-[1,3,4]oxadiazole]: the concentration for a half-maximal effect (EC50) was more than 32 µM.

As to `COc1ccccc1-c1nnc(-c2cccs2)o1` [Compound 331, 2-(2-Methoxy-phenyl)-5-thiophen-2-yl-[1,3,4]oxadiazole], the EC50 is more than 32 µM.

With `Fc1ccccc1-c1nnc(-c2ccccc2)o1` [Compound 332, 2-(2-Fluoro-phenyl)-5-phenyl-[1,3,4]oxadiazole], the EC50 was more than 32 µM.

With `Fc1ccccc1-c1nnc(-c2ccccc2F)o1` [Compound 333, 2,5-Bis-(2-fluoro-phenyl)-[1,3,4]oxadiazole], the EC50 is more than 32 µM.

For `Fc1ccccc1-c1nnc(-c2ccccc2C(F)(F)F)o1` [Compound 334, 2-(2-Fluoro-phenyl)-5-(2-trifluoromethyl-phenyl)-[1,3,4]oxadiazole], the EC50 is more than 32 µM.

Consider `Fc1ccccc1-c1nnc(-c2c(Cl)cccc2Cl)o1` [Compound 335, 2-(2,6-Dichloro-phenyl)-5-(2-fluoro-phenyl)-[1,3,4]oxadiazole], for which the concentration giving a half-maximal response (EC50) is more than 32 µM.

`Fc1ccccc1-c1nnc(-c2ccco2)o1` [Compound 336, 2-(2-Fluoro-phenyl)-5-furan-2-yl-[1,3,4]oxadiazole]: the 50% effective concentration (EC50) is more than 32 µM.

Take `Fc1ccccc1-c1nnc(-c2cccs2)o1` [Compound 337, 2-(2-Fluoro-phenyl)-5-thiophen-2-yl-[1,3,4]oxadiazole]: the EC50 was more than 32 µM.

For the compound `Oc1ccc2ccccc2c1-c1nnc(-c2ncccc2C(F)(F)F)o1` [Compound 338, 1-[5-(3-Trifluoromethyl-pyridin-2-yl)-[1,3,4]oxadiazol-2-yl]-naphthalen-2-ol], the EC50 was more than 19 µM.

On to `Cc1ccccc1-c1nnc(-c2ccccn2)o1` [Compound 339, 2-(5-o-Tolyl-[1,3,4]oxadiazol-2-yl)-pyridine], for which the EC50 was more than 32 µM.
